Experimental data published in publication PMC5773651, “Customised in vitro model to detect human metabolism-dependent idiosyncratic drug-induced liver injury” (Archives of Toxicology, 2017).
Like-named read-outs stand apart in the source and are kept apart here. Marks after values point to notes of the source that are not given here. Blank lines part the entries; values can stand above or below the compound they belong to.

Assays:
[1] = system: HepG2 cells transduced with AdCYP3A4; experiment: Cell viability (PI), IC50, AdCYP3A4-HepG2; type: cell-based; settings: Homo sapiens, unit inferred, tested range in µM
Procedure: (§1) For subculturing purposes, cells were detached by treatment with 0.25% trypsin/0.02% EDTA at 37 °C. For the adenovirus infection studies, cells were seeded in 96-well plates (5000 cells/well) and adenovirus-containing medium was added 48 h later. After 24 h, cells were transferred to the adenovirus-free medium and cultured for an additional 24-h period prior to the incubations performed with the test chemicals. To optimise the expression of the functional enzymes in the adenovirus-transduced HepG2 (Ad-HepG2) cells, different doses (MOI, multiplicity of infection, defined as plaque formation units per cell) of each adenovirus were tested.
(§2) The drugs included in the study were chosen based on previous information about their hepatotoxicity. Information on the potential mechanisms implicated in the toxicity of each compound and the major enzymes involved in their metabolism is summarised in Table 1. HepG2 or Ad-HepG2 (48 h post-infection) cells were exposed for 24 h to eight concentrations of the tested compounds. Each experimental condition was repeated independently three times (with three wells measured each time). The stock solutions of compounds were prepared in DMSO and were conveniently diluted in the culture medium to obtain the desired final concentrations. The final DMSO concentration in the culture medium was 0.5% (v/v), and the control cultures were treated with the same amount of solvent.
(§3) Following treatments, cells were simultaneously loaded with several fluorescent dyes to measure multiple biomarkers of cell toxicity. […] Information about the probes is summarised in Supplementary Table S2.
(§4) After incubating with dyes, cells were imaged by the Scan^R system (Olympus, Germany). Dyes were excited, and their fluorescence was monitored at the excitation and emission wavelengths at appropriate filter settings. The collected images were analysed using the Scan^R analysis module, which allows the simultaneous quantification of subcellular structures that are stained by different fluorescent probes.

[2] = system: HepG2 cells co-transduced with AdCYP3A4 and AdUGT2B7; experiment: HCS hepatotoxicity assay (MEC, TR), AdCYP3A4 + AdUGT2B7 HepG2; type: cell-based, human; settings: 24 h; for TR: TR = 100 x Cmax/lowest MEC; for MEC Apoptosis / MEC Calcium / MEC MMP / MEC Mitochondrial superoxide / MEC ROS: unit not given, tested range in µM
[3] = system: HepG2 cells transduced with CYP3A4 in the presence of CYP2C19; experiment: HCS hepatotoxicity assay (MEC, TR), AdCYP3A4 + AdCYP2C19 HepG2; type: cell-based, human; settings: CYP3A4-4X + CYP2C19-1X, 24 h
Source text: For all the compounds and studied parameters, the MEC led to at least a 20% variation in fluorescence intensity or in the corresponding morphological parameter compared to the untreated cultures.

[4] = system: HepG2 cells transduced with AdCYP2C9; experiment: Cell viability (PI), IC50, AdCYP2C9-HepG2; type: cell-based; settings: Homo sapiens, unit inferred, tested range in µM
HepG2 cells [5] = experiment: Cell viability (PI), IC50, control HepG2 cells; type: cell-based; settings: Homo sapiens; control non-transduced HepG2; 24 h; unit inferred, tested range in µM; read-out: IC50 (cell viability), C
[6] = system: HepG2 cells transduced with AdCYP3A4; experiment: HCS hepatotoxicity assay (MEC, TR), AdCYP3A4-HepG2; type: cell-based, human; settings: 24 h; for TR: TR = 100 x Cmax/lowest MEC; for MEC Apoptosis / MEC Calcium / MEC MMP / MEC Mitochondrial superoxide / MEC ROS: unit not given, tested range in µM
HepG2 cells [7] = settings: human, 24 h
Procedure: as §1, §2, §3, §4

[8] = system: HepG2 cells transduced with AdCYP2C19; experiment: Cell viability (PI), IC50, AdCYP2C19-HepG2; type: cell-based; settings: Homo sapiens, unit inferred, tested range in µM
Procedure: as §1, §2, §3, §4

[9] = ref Atienzar et al. ([2014]), Garside et al. ([2014]), Tolosa et al. ([2012b]); cited from earlier work
[10] = system: HepG2 cells co-transduced with AdCYP3A4 and AdCYP2C9; experiment: HCS hepatotoxicity assay (MEC, TR), AdCYP3A4 + AdCYP2C9 HepG2; type: cell-based, human; settings: 24 h; for TR: TR = 100 x Cmax/lowest MEC; for MEC Apoptosis / MEC Calcium / MEC MMP / MEC Mitochondrial superoxide / MEC ROS: unit not given, tested range in µM
[11] = cited from earlier work; for Bioactivation / Enzyme: major enzyme(s) involved in the bioactivation (denoted as *) or detoxification of the drug: previous information; for Toxicity (mechanisms of toxicity): ref Ashrafian et al. [2007], Donato et al. [2009], Fromenty and Pessayre [1997], Rolo et al. [2000], Tolosa et al. [2012b]
[12] = system: HepG2 cells transduced with AdCYP2C9; experiment: HCS hepatotoxicity assay (MEC, TR), AdCYP2C9-HepG2; type: cell-based, human; settings: 24 h; for TR: TR = 100 x Cmax/lowest MEC; for MEC Apoptosis / MEC Calcium / MEC MMP / MEC Mitochondrial superoxide / MEC ROS: unit inferred, tested range in µM
Procedure: as §1, §2, §3, §4

[13] = ADV CYP3A4 x1, 24 h, read-out: IC50 (cell viability), ADV dose x1
[14] = ADV CYP3A4 x4, 24 h, read-out: IC50 (cell viability), ADV dose x4
[15] = ADV CYP3A4 x10, 24 h, read-out: IC50 (cell viability), ADV dose x10
[16] = unit not given, tested range in µM
[17] = ADV CYP2C9 x1, 24 h, read-out: IC50 (cell viability), ADV dose x1
[18] = ADV CYP2C9 x4, 24 h, read-out: IC50 (cell viability), ADV dose x4
[19] = ADV CYP2C9 x10, 24 h, read-out: IC50 (cell viability), ADV dose x10

Structure (SMILES): O=C(O)Cc1ccccc1Nc1c(Cl)cccc1Cl [Diclofenac]
- IC50 [1, 13]: 126 µM
- IC50 [1, 14]: 99 µM
- IC50 [1, 15]: 2.8 µM
- TR ([2]; CYP3A4-1X + UGT2B7): 84
- MEC Apoptosis ([2]; CYP3A4-1X + UGT2B7): 5
- MEC Calcium ([2]; CYP3A4-1X + UGT2B7): 10
- MEC MMP ([2]; CYP3A4-1X + UGT2B7): 50
- MEC Mitochondrial superoxide ([2]; CYP3A4-1X + UGT2B7): 5
- MEC ROS ([2]; CYP3A4-1X + UGT2B7): 5
- TR ([2]; CYP3A4-4X + UGT2B7): 84
- MEC Apoptosis ([2]; CYP3A4-4X + UGT2B7): 5
- MEC Calcium ([2]; CYP3A4-4X + UGT2B7): 5
- MEC MMP ([2]; CYP3A4-4X + UGT2B7): 50
- MEC Mitochondrial superoxide ([2]; CYP3A4-4X + UGT2B7): 5
- MEC ROS ([2]; CYP3A4-4X + UGT2B7): 5
- TR ([3]; TR = 100 x Cmax/lowest MEC): 42
- MEC Apoptosis [3, 16]: 50
- MEC Calcium [3, 16]: 50
- MEC MMP [3, 16]: 125
- MEC Mitochondrial superoxide [3, 16]: 10
- MEC ROS [3, 16]: 10
- IC50 [4, 17]: 42.1 µM
- IC50 [4, 18]: 51.6 µM
- IC50 [4, 19]: 15.5 µM
- IC50 (HepG2 cells [5]): 167 µM
- TR ([6]; AdCYP 3A4 1x): 42
- MEC Apoptosis ([6]; AdCYP 3A4 1x): 125
- MEC Calcium ([6]; AdCYP 3A4 1x): 10
- MEC MMP ([6]; AdCYP 3A4 1x): 125
- MEC Mitochondrial superoxide ([6]; AdCYP 3A4 1x): 50
- MEC ROS ([6]; AdCYP 3A4 1x): 10
- TR ([6]; AdCYP 3A4 4x): 84
- MEC Apoptosis ([6]; AdCYP 3A4 4x): 10
- MEC Calcium ([6]; AdCYP 3A4 4x): 10
- MEC MMP ([6]; AdCYP 3A4 4x): 125
- MEC Mitochondrial superoxide ([6]; AdCYP 3A4 4x): 5
- MEC ROS ([6]; AdCYP 3A4 4x): 5
- MEC Apoptosis (HepG2 cells [7]): 125 µM
- MEC Calcium (HepG2 cells [7]): 50
- MEC MMP (HepG2 cells [7]): 250
- MEC Mitochondrial superoxide (HepG2 cells [7]): 125
- MEC ROS (HepG2 cells [7]): 50
- TR (HepG2 cells [7]): 8.4
- IC50 ([8]; ADV CYP2C19 x1, 24 h, read-out: IC50 (cell viability), ADV dose x1): 140 µM
- IC50 ([8]; ADV CYP2C19 x4, 24 h, read-out: IC50 (cell viability), ADV dose x4): 158 µM
- IC50 ([8]; ADV CYP2C19 x10, 24 h, read-out: IC50 (cell viability), ADV dose x10): 11.5 µM
- Cmax [9]: 4.2 µM
- TR ([10]; CYP3A4-1X + CYP2C9-1X): 84
- MEC Apoptosis ([10]; CYP3A4-1X + CYP2C9-1X): 125
- MEC Calcium ([10]; CYP3A4-1X + CYP2C9-1X): 10
- MEC MMP ([10]; CYP3A4-1X + CYP2C9-1X): 125
- MEC Mitochondrial superoxide ([10]; CYP3A4-1X + CYP2C9-1X): 50
- MEC ROS ([10]; CYP3A4-1X + CYP2C9-1X): 5
- TR ([10]; CYP3A4-4X + CYP2C9-1X): 84
- MEC Apoptosis ([10]; CYP3A4-4X + CYP2C9-1X): 10
- MEC Calcium ([10]; CYP3A4-4X + CYP2C9-1X): 10
- MEC MMP ([10]; CYP3A4-4X + CYP2C9-1X): 125
- MEC Mitochondrial superoxide ([10]; CYP3A4-4X + CYP2C9-1X): 5
- MEC ROS ([10]; CYP3A4-4X + CYP2C9-1X): 5

- IC50 [4, 17]: > 1200 µM
- IC50 [4, 18]: 1160 µM
- IC50 [4, 19]: 846 µM
- IC50 (HepG2 cells [5]): > 1200 µM
- MEC Calcium (HepG2 cells [7]): 800
- MEC MMP (HepG2 cells [7]): >1200
- MEC Mitochondrial superoxide (HepG2 cells [7]): 800
- MEC ROS (HepG2 cells [7]): 1200
- TR (HepG2 cells [7]): 10.3
Structure (SMILES): O=C(O)COc1ccc(C(=O)c2cccs2)c(Cl)c1Cl [Tienilic acid]
- Bioactivation [11]: Yes
- Enzyme: major enzyme(s) involved in the bioactivation (denoted as *) or detoxification of the drug [11]: CYP2C9*
- Toxicity (mechanisms of toxicity) [11]: CB, OS
- TR ([12]; AdCYP 2C9 1x): 13.8
- MEC Apoptosis ([12]; AdCYP 2C9 1x): 600 µM
- MEC Calcium ([12]; AdCYP 2C9 1x): 600 µM
- MEC MMP ([12]; AdCYP 2C9 1x): > 1200 µM
- MEC Mitochondrial superoxide ([12]; AdCYP 2C9 1x): 600 µM
- MEC ROS ([12]; AdCYP 2C9 1x): 800 µM
- TR ([12]; AdCYP 2C9 4x): 20.7
- MEC Apoptosis ([12]; AdCYP 2C9 4x): 400 µM
- MEC Calcium ([12]; AdCYP 2C9 4x): 400 µM
- MEC MMP ([12]; AdCYP 2C9 4x): > 1200 µM
- MEC Mitochondrial superoxide ([12]; AdCYP 2C9 4x): 400 µM
- MEC ROS ([12]; AdCYP 2C9 4x): 600 µM
- TR ([12]; AdCYP 2C9 10x): 41.3
- MEC Apoptosis ([12]; AdCYP 2C9 10x): 200 µM
- MEC Calcium ([12]; AdCYP 2C9 10x): 200 µM
- MEC MMP ([12]; AdCYP 2C9 10x): > 1200 µM
- MEC Mitochondrial superoxide ([12]; AdCYP 2C9 10x): 400 µM
- MEC ROS ([12]; AdCYP 2C9 10x): 400 µM
- MEC Apoptosis (HepG2 cells [7]): 1200 µM
- Cmax [9]: 82.7 µM

- IC50 [1, 13]: 86 µM
- IC50 [1, 14]: 76 µM
- IC50 [1, 15]: < 50 µM
- IC50 (HepG2 cells [5]): 213 µM
- MEC Calcium (HepG2 cells [7]): 100
- MEC MMP (HepG2 cells [7]): 200
- MEC Mitochondrial superoxide (HepG2 cells [7]): 200
- MEC ROS (HepG2 cells [7]): 100
- TR (HepG2 cells [7]): 6.4
Structure (SMILES): Cc1c(C)c2c(c(C)c1O)CCC(C)(COc1ccc(CC3SC(=O)NC3=O)cc1)O2 (stereo not drawn) [Troglitazone]
- Bioactivation [11]: Yes
- Enzyme: major enzyme(s) involved in the bioactivation (denoted as *) or detoxification of the drug [11]: CYP3A4*
- Toxicity (mechanisms of toxicity) [11]: MI, OS
- DILI category ([11]; ref Gustafsson et al. ([2014])): Severe
- TR ([6]; AdCYP 3A4 1x): 12.8
- MEC Apoptosis ([6]; AdCYP 3A4 1x): 100
- MEC Calcium ([6]; AdCYP 3A4 1x): 75
- MEC MMP ([6]; AdCYP 3A4 1x): 200
- MEC Mitochondrial superoxide ([6]; AdCYP 3A4 1x): 200
- MEC ROS ([6]; AdCYP 3A4 1x): 50
- TR ([6]; AdCYP 3A4 4x): 12.8
- MEC Apoptosis ([6]; AdCYP 3A4 4x): 75
- MEC Calcium ([6]; AdCYP 3A4 4x): 50
- MEC MMP ([6]; AdCYP 3A4 4x): 200
- MEC Mitochondrial superoxide ([6]; AdCYP 3A4 4x): 75
- MEC ROS ([6]; AdCYP 3A4 4x): 50
- TR ([6]; AdCYP 3A4 10x): 12.8
- MEC Apoptosis ([6]; AdCYP 3A4 10x): 50
- MEC Calcium ([6]; AdCYP 3A4 10x): 50
- MEC MMP ([6]; AdCYP 3A4 10x): 150
- MEC Mitochondrial superoxide ([6]; AdCYP 3A4 10x): 50
- MEC ROS ([6]; AdCYP 3A4 10x): 50
- MEC Apoptosis (HepG2 cells [7]): 100 µM
